Test results as given in patent publication US10610514B2, “Composition comprising compound inhibiting interactions of MBD2 and P66α for anti-metastasis and prevention and treatment of cancer disease” (Industry-University Cooperation Foundation Hanyang …, priority 2016, dated 2020).
pIC50: −log10 of the molar value. Where two headings read alike, the source gives them in different places.

What was measured:
[1] = test system: HCT116 and MDA-MB-231 cell lines; assay: Western blotting of EMT-associated marker proteins; format: cell-based; conditions: 10 μM, 48 hours
Source text: Therefore, the compounds of Formulas 1 and 2 according to the present invention may be excellent leading materials in the development of therapeutic agents for metastasis.

MEL cell line [2] = assay: Cell cycle analysis by FACS and karyotype analysis of MEL cells; format: cell-based, murine
MEL cells = assay: Western blotting of cell cycle- and apoptosis-associated marker proteins in MEL cells; format: cell-based, murine
Source text: In addition, as a western blotting result to show the change in the expression of cell cycle-associated marker proteins according to the concentration and time of the treated compound of Formula 1, it was confirmed that all activities of cyclin/CDK controlling the checkpoints of the cell cycle were decreased. Therefore, referring to FIG. 13, it was seen that overall progression of the cell cycle was inhibited by the treatment with the compound of Formula 1, and aneuploidy and cell death were induced.

[3] = test system: solid tumor cell lines (HCT116, BEAS2B, 293T, Hep3B, MCF7, MDA-MB-231, MCF10A, U373MG); assay: MTT assay cell viability, solid tumor cell lines; format: cell-based; conditions: average
Description: (§1) Lymphoid leukemia cell lines (Raji, Molt4, IM9, Jurkat, CCRF-CEM, and Daudi), leukemia cell lines (KCL22, MEL, THP-1, HL60, HEL, U937, KG-1, and K562), and solid tumor cell lines (HCT116 colorectal cancer cell line, BEAS2B lung epithelial cell line, 293T fetus kidney epithelial cell line, Hep3B liver cancer cell line, MCF7 and MDA-MB-231 breast cancer cell lines, MCF10A breast epithelial cell line, and U373MG brain tumor cell line) were treated with a compound at different concentrations (0, 1, 10, 100, 1,000, and 10,000 μM), cultured for 4 days, and subjected to MTT assay every 24 hours to measure cell viability. 48 hours after the treatment with the compound, a morphological change of the cells was observed, and cell images were taken. IC50 values caused by the treatment with each compound were calculated using the Graph Prism Pad 6 program.

[4] = test system: leukemia cell lines (KCL22, MEL, THP-1, HL60, HEL, U937, KG-1, and K562); assay: MTT assay cell viability, leukemia cell lines; format: cell-based
Description: as §1

[5] = test system: lymphoid leukemia cell lines (Raji, Molt4, IM9, Jurkat, CCRF-CEM, and Daudi); assay: MTT assay cell viability, lymphoid leukemia cell lines; format: cell-based; conditions: average
Description: as §1

MEL cell line [6] = assay: Leukemia cell line-implanted animal model (MEL cell line intravenously injected into immunodeficient mice); format: in vivo
Source text: The result is shown in FIGS. 9A, 9B, 9C, 9D, 9E, 9F, 9G, 9H, 9I and 9J below.
However, a white blood cell level was reduced due to the treatment with the compound at a slightly higher concentration, but the histological characteristics of the major organs as well as the overall hematological characteristics were normal (FIGS. 9D and 9E).
Meanwhile, to confirm whether the compound of Formula 1 can treat tumors generated in the animal models, the MEL cell line was intravenously injected, after 7 days, the compound of Formula 1 was intravenously injected five times at intervals of three days, and then, on the 21th day, the mice were sacrificed to be subjected to analysis by the above-described method (FIG. 9F).

[7] = test system: target gene expression of the CP2c transcription factor complex; assay: Luc reporter assay, GATA1 enhancer, 293T cells transduced with CBP complex protein overexpression vectors; format: cell-based
Description: Therefore, Luc reporter assay was carried out to analyze whether a decrease in the target gene expression of the CP2c transcription factor complex due to MBD2 or p66α overexpression is restored by the treatment with a compound for inhibiting the interaction between the MBD2 and p66α selected in the previous step (FIGS. 2A and 2B). Here, as a CP2c transcription factor target sequence that controls Luc reporter gene expression, a GATA1 enhancer was used, and 293T cells were transduced with various combinations of CBP complex protein overexpression vectors and then used for analysis.

[8] = test system: MDA-MB-231, HCT116, MEL and HL60 cell lines; assay: In vitro cancer cell migration and invasion, Trans-well insert; format: cell-based; conditions: 10 μM, in comparison with controls, all cell lines
Description: Accordingly, to confirm whether EMT and metastasis are inhibited by the treatment with the compounds of Formulas 1 and 2, in vitro cancer cell migration and invasion abilities were analyzed, and the result is shown in FIGS. 3A and 3B below.

[9] = test system: various cancer cell lines; assay: MTT assay cell viability, all cancer cell lines; format: cell-based
Description: as §1

[10] = 16.5 μM and 40 μM, western blotting over time
[11] = dosing started 7 days after MEL injection, day 21

How did the “expression of epithelial cell marker proteins (β-catenin, E-cadherin)” value [1] turn out when `NCC(=O)NC[C@H]1COc2ccccc2O1` [Formula 1] was run?
Its value is “decreased”.

What about the “expression of mesenchymal cell marker proteins (Snail, slug, N-cadherin)” value [1] of the same compound?
The value was “significantly decreased”.

And the G0/G1 group (MEL cell line [2]; FACS)?
The G0/G1 group was “reduction”.

And the G2/M group (MEL cell line [2]; FACS)?
The G2/M group was “increase”.

What about the aneuploidy cell group (MEL cell line [2]; FACS) of the same compound?
Its aneuploidy cell group is “significant increases”.

What about the “subG1 (cell group dying by apoptosis)” value (MEL cell line [2]; FACS) of the same compound?
Its value is “significant increases”.

And the aneuploidy (MEL cell line [2]; FACS after synchronization at G1/S by thymidine double block)?
Its aneuploidy is “remarkably induced”.

What about the “chromosomes (karyotype analysis)” value (MEL cell line [2]; karyotype analysis) of the same compound?
Its value is “abnormally increased”.

What about the apoptosis-associated caspases (MEL cells; [10]) of the same compound?
The apoptosis-associated caspases was “activated”.

And the “expression of the apoptosis inhibition marker” value (MEL cells; [10])?
Its value is “decreased”.

And the “expression of the apoptosis promotion marker” value (MEL cells; [10])?
The value was “increased”.

And the “activities of cyclin/CDK controlling the checkpoints of the cell cycle” value (MEL cells; western blotting, by concentration and time)?
The value was “decreased”.

And the pIC50 [3]?
Its pIC50 is 2.75.

And the pIC50 ([4]; average, read-out: IC50 average)?
Its pIC50 is 4.30.

And the pIC50 ([4]; range over cell lines, read-out: IC50 values)?
The pIC50 was 3.66 to 5.22.

And the pIC50 [5]?
Its pIC50 is 3.67.

What about the “side effects in normal tissue/blood” value (MEL cell line [6]; MEL-implanted mice) of the same compound?
The value was “no side effects”.

And the “histological characteristics of the major organs and overall hematological characteristics” value (MEL cell line [6]; dosing from MEL injection, day 16)?
Its value is “normal”.

And the “histological characteristics of the major organs and overall hematological characteristics” value (MEL cell line [6]; [11])?
The value was “normal”.

And the “tumor cells in the blood, spleen and liver” value (MEL cell line [6]; [11])?
The value was “no tumor cells”.

And the “splenomegaly caused by the MEL cells” value (MEL cell line [6]; dosing started 7 days after MEL injection, i.v. five times at intervals of three days, day 21, concentration-dependent)?
Its value is “disappeared”.

What about the “splenomegaly caused by the MEL cells” value (MEL cell line [6]; i.v. 12.2, 24.4, 48.8 μg/Kg five times at intervals of three days from MEL injection, day 16, concentration-dependent) of the same compound?
The value was “disappeared”.

And the “tumor cells in the blood, spleen and liver” value (MEL cell line [6]; i.v. five times at intervals of three days from MEL injection, day 16)?
The value was “no tumor cells”.

And the “white blood cell level” value (MEL cell line [6]; slightly higher concentration, day 16)?
Its value is “reduced”.

What about the “restoration of the inhibition of target gene expression by MBD2 overexpression” value [7] of the same compound?
Its value is “did not restore”.

And the “restoration of the inhibition of target gene expression by p66α overexpression” value [7]?
The value was “restored”.

And the “effect on migration and invasion abilities” value [8]?
Its value is “significant inhibitory effect”.

What does the source list for `CC(C)(C)OC(=O)N1CC[C@@H](CC(=O)CN)C1` [Formula 2]?
expression of epithelial cell marker proteins (β-catenin, E-cadherin) [1]: decreased; expression of mesenchymal cell marker proteins (Snail, slug, N-cadherin) [1]: significantly decreased; IC50 values (in words) ([9]; uniform in all cancer cell lines): slightly higher IC50 values; growth and cell death of cell lines ([9]; various cancer cell lines): effects of inhibiting the growth and inducing cell death; restoration of the inhibition of target gene expression by MBD2 overexpression [7]: restored; restoration of the inhibition of target gene expression by p66α overexpression [7]: did not restore; effect on migration and invasion abilities [8]: significant inhibitory effect
